Our source for the EC50 values is patent US20230151017A1, “THERAPEUTIC AGENTS TARGETING GPR35” (PROMETHEUS BIOSCIENCES, INC., priority 2020, published 2023).

One may read the EC50 as the concentration needed to bring the measured effect to its halfway point. A high value points to a need for much substance.

The target in this experiment is T1, Human GPR35 (Homo sapiens, UniProt Q9HC97).
T1 construct: Tango receptor fusion (protease cleavage site + Gal4-VP16 transcription factor); host or cells: Jump-In Tango U2OS cells
T1 sequence (Q9HC97 whole entry, the tested form may be a part): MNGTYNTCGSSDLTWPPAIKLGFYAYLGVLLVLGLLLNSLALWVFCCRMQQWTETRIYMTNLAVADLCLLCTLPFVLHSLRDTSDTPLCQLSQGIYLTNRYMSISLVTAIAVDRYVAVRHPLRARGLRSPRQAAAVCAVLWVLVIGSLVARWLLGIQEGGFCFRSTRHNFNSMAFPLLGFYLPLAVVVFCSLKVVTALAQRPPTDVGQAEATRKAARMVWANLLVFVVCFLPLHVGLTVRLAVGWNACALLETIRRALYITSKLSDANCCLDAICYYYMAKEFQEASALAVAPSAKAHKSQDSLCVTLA
As to the kind of experiment: Beta-Arrestin Assay. The note with it: Human GPR35 expressing JumpIn 294S Tango U2OS cells; compounds overnight; LiveBLAzer-FRET B/G (CCF4-AM) readout. The experiment is classed as cell-based. How it is done: Human GPR35 expressing JumpIn (Thermo Fisher) 294S Tango U2OS cells were plated in 384-well format in clear bottom plates at a cell density of 10,000 cells/well and allowed to adhere for 5 hours. Cells were then treated with serially diluted test compounds overnight. The next day, LiveBLAzer-FRET B/G (CCF4-AM) detection reagents were added, and cells were allowed to incubate for 4 hours in the dark at room temp before reading plates on a BioTek Cytation 5 plate reader. To determine EC50 values, data were fit to a four-parameter dose-response curves.
`CCOc1cc(-c2ccc(C(N)=O)cc2)ccc1-c1nc2[nH]nnc2c(=O)[nH]1` [Compound 101, 3′-Ethoxy-4′-(7-oxo-6,7-dihydro-3H-[1,2,3]triazolo[4,5-d]pyrimidin-5-yl)-[1,1′-biphenyl]-4-carboxamide] displayed an EC50 of at most 1000 nM. As for `CCOc1cc(-c2cccc(CCCO)c2)ccc1-c1nc2[nH]nnc2c(=O)[nH]1` [Compound 102, 5-(3-Ethoxy-3′-(3-hydroxypropyl)-[1,1′-biphenyl]-4-yl)-3,6-dihydro-7H-[1,2,3]triazolo[4,5-d]pyrimidin-7-one], the EC50 is at most 1000 nM.

For `CCOc1cc(-c2cccc(CCO)c2)ccc1-c1nc2[nH]nnc2c(=O)[nH]1` [Compound 103, 5-(3-Ethoxy-3′-(2-hydroxyethyl)-[1,1′-biphenyl]-4-yl)-3,6-dihydro-7H-[1,2,3]triazolo[4,5-d]pyrimidin-7-one], the EC50 was in the range of 1000 to 10000 nM. Then `CCOc1cc(-c2cccc(CO)c2)ccc1-c1nc2[nH]nnc2c(=O)[nH]1` [Compound 104, 5-(3-Ethoxy-3′-(hydroxymethyl)-[1,1′-biphenyl]-4-yl)-3,6-dihydro-7H-[1,2,3]triazolo[4,5-d]pyrimidin-7-one], with at most 1000 nM; and `CCOc1cc(-c2ccc(CO)cc2)ccc1-c1nc2[nH]nnc2c(=O)[nH]1` [Compound 105, 5-(3-Ethoxy-4′-(hydroxymethyl)-[1,1′-biphenyl]-4-yl)-3,6-dihydro-7H-[1,2,3]triazolo[4,5-d]pyrimidin-7-one], with at most 1000 nM.

`CCOc1cc(-c2cccc(S(N)(=O)=O)c2)ccc1-c1nc2[nH]nnc2c(=O)[nH]1` [Compound 106, 3′-Ethoxy-4′-(7-oxo-6,7-dihydro-3H-[1,2,3]triazolo[4,5-d]pyrimidin-5-yl)-[1,1′-biphenyl]-3-sulfonamide]: the EC50 fell in the range of 1000 to 10000 nM.

In turn, `CCOc1cc(-c2ccc(S(N)(=O)=O)cc2)ccc1-c1nc2[nH]nnc2c(=O)[nH]1` [Compound 107, 3′-Ethoxy-4′-(7-oxo-6,7-dihydro-3H-[1,2,3]triazolo[4,5-d]pyrimidin-5-yl)-[1,1′-biphenyl]-4-sulfonamide] registered an EC50 of 1000 to 10000 nM.

Regarding `CCOc1cc(-c2ccc(O)c(O)c2)ccc1-c1nc2[nH]nnc2c(=O)[nH]1` [Compound 108, 5-(3-Ethoxy-3′,4′-dihydroxy-[1,1′-biphenyl]-4-yl)-3,6-dihydro-7H-[1,2,3]triazolo[4,5-d]pyrimidin-7-one], the EC50 was at most 1000 nM. Then `CCOc1cc(-c2cc(O)ccc2O)ccc1-c1nc2[nH]nnc2c(=O)[nH]1` [Compound 109, 5-(3-Ethoxy-2′,5′-dihydroxy-[1,1′-biphenyl]-4-yl)-3,6-dihydro-7H-[1,2,3]triazolo[4,5-d]pyrimidin-7-one], with at most 1000 nM; and `CCOc1cc(-c2ccc(O)cc2O)ccc1-c1nc2[nH]nnc2c(=O)[nH]1` [Compound 110, 5-(3-Ethoxy-2′,4′-dihydroxy-[1,1′-biphenyl]-4-yl)-3,6-dihydro-7H-[1,2,3]triazolo[4,5-d]pyrimidin-7-one], with 1000 to 10000 nM. In the case of `CCOc1cc(-c2cc(O)cc(O)c2)ccc1-c1nc2[nH]nnc2c(=O)[nH]1` [Compound 111, 5-(3-Ethoxy-3′,5′-dihydroxy-[1,1′-biphenyl]-4-yl)-3,6-dihydro-7H-[1,2,3]triazolo[4,5-d]pyrimidin-7-one], the EC50 is at most 1000 nM. The figure for `CCOc1cc(-c2cc(O)cc(/C=C/C(=O)O)c2)ccc1-c1nc2[nH]nnc2c(=O)[nH]1` [Compound 112, (E)-3-(3′-ethoxy-5-hydroxy-4′-(7-oxo-6,7-dihydro-3H-[1,2,3]triazolo[4,5-d]pyrimidin-5-yl)-[1,1′-biphenyl]-3-yl)acrylic acid] is at most 1000 nM.

`CCOc1cc(-c2cc(O)cc(CCC(=O)O)c2)ccc1-c1nc2[nH]nnc2c(=O)[nH]1` [Compound 113, 3-(3′-Ethoxy-5-hydroxy-4′-(7-oxo-6,7-dihydro-3H-[1,2,3]triazolo[4,5-d]pyrimidin-5-yl)-[1,1′-biphenyl]-3-yl)propanoic acid] returned an EC50 of at most 1000 nM. `CCOc1cc(-c2cc(O)cc(CCC(N)=O)c2)ccc1-c1nc2[nH]nnc2c(=O)[nH]1` [Compound 114, 3-(3′-Ethoxy-5-hydroxy-4′-(7-oxo-6,7-dihydro-3H-[1,2,3]triazolo[4,5-d]pyrimidin-5-yl)-[1,1′-biphenyl]-3-yl)propanamide] yielded a 50% effective concentration (EC50) of at most 1000 nM. The figure for `CCOc1cc(-c2cc(CCC(=O)O)cc(OCCN)c2)ccc1-c1nc2[nH]nnc2c(=O)[nH]1` [Compound 115, 3-(5-(2-aminoethoxy)-3′-ethoxy-4′-(7-oxo-6,7-dihydro-3H-[1,2,3]triazolo[4,5-d]pyrimidin-5-yl)-[1,1′-biphenyl]-3-yl)propanoic acid] is 1000 to 10000 nM; for `CCOc1cc(-c2ccc(OCCN)c(CCC(=O)O)c2)ccc1-c1nc2[nH]nnc2c(=O)[nH]1` [Compound 116, 3-(4-(2-Aminoethoxy)-3′-ethoxy-4′-(7-oxo-6,7-dihydro-3H-[1,2,3]triazolo[4,5-d]pyrimidin-5-yl)-[1,1′-biphenyl]-3-yl)propanoic acid] it is at most 1000 nM; for `CCOc1cc(-c2cccc(CCC(=O)NO)c2)ccc1-c1nc2[nH]nnc2c(=O)[nH]1` [Compound 117, 3-(3′-Ethoxy-4′-(7-oxo-6,7-dihydro-3H-[1,2,3]triazolo[4,5-d]pyrimidin-5-yl)-[1,1′-biphenyl]-3-yl)-N-hydroxypropanamide] it is 1000 to 10000 nM. The figure for `CCOc1cc(-c2cccc(CCC(=O)NOC)c2)ccc1-c1nc2[nH]nnc2c(=O)[nH]1` [Compound 118, 3-(3′-Ethoxy-4′-(7-oxo-6,7-dihydro-3H-[1,2,3]triazolo[4,5-d]pyrimidin-5-yl)-[1,1′-biphenyl]-3-yl)-N-methoxypropanamide] is 1000 to 10000 nM; for `CCOc1cc(-c2cccc(CCC(N)=O)c2)ccc1-c1nc2[nH]nnc2c(=O)[nH]1` [Compound 119, 3-(3′-Ethoxy-4′-(7-oxo-6,7-dihydro-3H-[1,2,3]triazolo[4,5-d]pyrimidin-5-yl)-[1,1′-biphenyl]-3-yl)propanamide] it is 1000 to 10000 nM.

Take `CCOc1cc(-c2cccc(/C=C3\SC(=O)NC3=O)c2)ccc1-c1nc2[nH]nnc2c(=O)[nH]1` [Compound 120, (Z)-5-((3′-Ethoxy-4′-(7-oxo-6,7-dihydro-3H-[1,2,3]triazolo[4,5-d]pyrimidin-5-yl)-[1,1′-biphenyl]-3-yl)methylene)thiazolidine-2,4-dione]: the EC50 is at most 1000 nM. Then `CCOc1cc(-c2cccc(CC3SC(=O)NC3=O)c2)ccc1-c1nc2[nH]nnc2c(=O)[nH]1` (stereo not shown) [Compound 121, 5-((3′-Ethoxy-4′-(7-oxo-6,7-dihydro-3H-[1,2,3]triazolo[4,5-d]pyrimidin-5-yl)-[1,1′-biphenyl]-3-yl)methyl)thiazolidine-2,4-dione], with at most 1000 nM. Then `CCOc1cc(-c2cccc(CCc3noc(=O)[nH]3)c2)ccc1-c1nc2[nH]nnc2c(=O)[nH]1` [Compound 122, 3-(2-(3′-Ethoxy-4′-(7-oxo-6,7-dihydro-3H-[1,2,3]triazolo[4,5-d]pyrimidin-5-yl)-[1,1′-biphenyl]-3-yl)ethyl)-1,2,4-oxadiazol-5(4H)-one], with at most 1000 nM; and `CCOc1cc(-c2cccc(CCC(=O)NS(=O)(=O)N(C)C)c2)ccc1-c1nc2[nH]nnc2c(=O)[nH]1` [Compound 123, N—(N,N-Dimethylsulfamoyl)-3-(3′-ethoxy-4′-(7-oxo-6,7-dihydro-3H-[1,2,3]triazolo[4,5-d]pyrimidin-5-yl)-[1,1′-biphenyl]-3-yl)propanamide], with at most 1000 nM; and `CCOc1cc(-c2cccc(CCc3nnn[nH]3)c2)ccc1-c1nc2[nH]nnc2c(=O)[nH]1` [Compound 124, 5-(3′-(2-(1H-Tetrazol-5-yl)ethyl)-3-ethoxy-[1,1′-biphenyl]-4-yl)-3,6-dihydro-7H-[1,2,3]triazolo[4,5-d]pyrimidin-7-one], with at most 1000 nM. The figure for `CCOc1cc(-c2cccc(CC3OC(=O)NC3=O)c2)ccc1-c1nc2[nH]nnc2c(=O)[nH]1` (stereo not shown) [Compound 125, 5-((3′-Ethoxy-4′-(7-oxo-6,7-dihydro-3H-[1,2,3]triazolo[4,5-d]pyrimidin-5-yl)-[1,1′-biphenyl]-3-yl)methyl)oxazolidine-2,4-dione] is at most 1000 nM; for `CCOc1cc(-c2cccc(Cc3c(C)[nH]oc3=O)c2)ccc1-c1nc2[nH]nnc2c(=O)[nH]1` [Compound 126, 4-((3′-Ethoxy-4′-(7-oxo-6,7-dihydro-3H-[1,2,3]triazolo[4,5-d]pyrimidin-5-yl)-[1,1′-biphenyl]-3-yl)methyl)-3-methylisoxazol-5(2H)-one] it is at most 1000 nM; for `CCOc1cc(-c2cccc(C(O)(O)C(F)(F)F)c2)ccc1-c1nc2[nH]nnc2c(=O)[nH]1` [Compound 127, 5-(3-Ethoxy-3′-(2,2,2-trifluoro-1,1-dihydroxyethyl)-[1,1′-biphenyl]-4-yl)-3,6-dihydro-7H-[1,2,3]triazolo[4,5-d]pyrimidin-7-one] it is at most 1000 nM. `CCOc1cc(-c2ccc(C(O)(O)C(F)(F)F)cc2)ccc1-c1nc2[nH]nnc2c(=O)[nH]1` [Compound 128, 5-(3-Ethoxy-4′-(2,2,2-trifluoro-1,1-dihydroxyethyl)-[1,1′-biphenyl]-4-yl)-3,6-dihydro-7H-[1,2,3]triazolo[4,5-d]pyrimidin-7-one] had an EC50 of at most 1000 nM.
